Test results published in the supplement of paper PMC11061612.

Experiments:
Test in all cases: Bliss excess, mean over the matrix (fraction); higher = more synergy
[1] = system: OVISE (Ovarian Carcinoma)
Procedure, shortened: (§1)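 Cell lines grown in DMEM/F12 or RPMI with 10% FBS were plated in 1536-well plates and held 24 hours at 37°C, 5% CO2 before 72 hours of exposure to two-drug dose matrices, with DMSO typically at 0.2%. CellTiter-Glo 2.0 luminescence gave viability, which was converted to inhibition. Vehicle wells were set to 0 and blank wells to 1. Combination Emax is the second-highest inhibition in the matrix, and Bliss excess is the observed combination effect minus the expected EA + EB − EA·EB, where EA and EB are the single-agent effects.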

[2] = system: KYSE-50 (Esophageal Squamous Cell Carcinoma)
Procedure, shortened: as §1

[3] = system: OCUB-M (Breast Carcinoma)
Procedure, shortened: as §1

[4] = system: PFSK-1 (Other Solid Carcinomas)
Procedure, shortened: as §1

[5] = system: NCI-H513 (Other Solid Carcinomas)
Procedure, shortened: as §1

[6] = system: H-EMC-SS (Chondrosarcoma)
Procedure, shortened: as §1

[7] = system: PF-382 (T-Lymphoblastic Leukemia)
Procedure, shortened: as §1

EW-3 (Ewing's Sarcoma) = system: EW-3 (Ewing's Sarcoma)
Procedure, shortened: as §1

EW-13 (Ewing's Sarcoma) = system: EW-13 (Ewing's Sarcoma)
Procedure, shortened: as §1

[8] = system: HuP-T3 (Pancreatic Carcinoma)
Procedure, shortened: as §1

[9] = system: LC4-1 (B-Lymphoblastic Leukemia)
Procedure, shortened: as §1

NB7 (Neuroblastoma) = system: NB7 (Neuroblastoma)
Procedure, shortened: as §1

[10] = system: EMC-BAC-2 (Non-Small Cell Lung Carcinoma)
Procedure, shortened: as §1

[11] = system: EBC-1 (Squamous Cell Lung Carcinoma)
Procedure, shortened: as §1

EW-18 (Ewing's Sarcoma) = system: EW-18 (Ewing's Sarcoma)
Procedure, shortened: as §1

BT-20 (Breast Carcinoma) = system: BT-20 (Breast Carcinoma)
Procedure, shortened: as §1

[12] = system: OCUM-1 (Gastric Carcinoma)
Procedure, shortened: as §1

[13] = system: DG-75 (Burkitt's Lymphoma)
Procedure, shortened: as §1

GOTO (Neuroblastoma) = system: GOTO (Neuroblastoma)
Procedure, shortened: as §1

[14] = system: LOU-NH91 (Squamous Cell Lung Carcinoma)
Procedure, shortened: as §1

Row | Structure (SMILES) | Bliss excess [1] | Bliss excess [2] | Bliss excess [3] | Bliss excess [4] | Bliss excess [5] | Bliss excess [6] | Bliss excess [7] | Bliss excess (EW-3 (Ewing's Sarcoma)) | Bliss excess (EW-13 (Ewing's Sarcoma)) | Bliss excess [8] | Bliss excess [9] | Bliss excess (NB7 (Neuroblastoma)) | Bliss excess [10] | Bliss excess [11] | Bliss excess (EW-18 (Ewing's Sarcoma)) | Bliss excess (BT-20 (Breast Carcinoma)) | Bliss excess [12] | Bliss excess [13] | Bliss excess (GOTO (Neuroblastoma)) | Bliss excess [14]
1 | CC1(C)CCC(CN2CCN(c3ccc(C(=O)NS(=O)(=O)c4ccc(NCC5CCOCC5)c([N+](=O)[O-])c4)c(Oc4cnc5[nH]ccc5c4)c3)CC2)=C(c2ccc(Cl)cc2)C1 [Venetoclax] + C[C@@H](Nc1cc(F)cc(F)c1)c1cc(C(=O)N(C)C)cc2c(=O)cc(N3CCOCC3)oc12 [AZD8186] (first compound max 1 µM, 7x7, partner max 3 µM) | -0.0296 | -0.0295 | -0.0082 | 0.0015 | -0.0586 | -0.0159 | 0.0111 | 0.0336 | 0.0349 | -0.0275 | 0.0967 | -0.0235 | -0.0393 | -0.0233 | 0.0781 | -0.0229 | -0.0263 | 0.0255 | -0.0334 | -0.0647
2 | Cc1c2c(nn1C)CSCc1cc(n(C)n1)CSc1cc(c3ccccc3c1)OCCCc1c(C(=O)O)n(C)c3c-2c(Cl)ccc13 [AZD5991] + C=CCn1c(=O)c2cnc(Nc3ccc(N4CCN(C)CC4)cc3)nc2n1-c1cccc(C(C)(C)O)n1 [AZD1775] (first compound max 1 µM, partner max 1 µM) | 0.0108 | -0.0042 | 0.034 | -0.0282 | -0.003 | 0.0071 | -0.0314 | 0.017 | -0.0441 | -0.0454 | 0.0301 | -0.0084 | -0.0121 | 0.0007 | -0.0102 | -0.02 | -0.0148 | -0.0098 | -0.0513 | 0.0376
3 | CC1(C)CCC(CN2CCN(c3ccc(C(=O)NS(=O)(=O)c4ccc(NCC5CCOCC5)c([N+](=O)[O-])c4)c(Oc4cnc5[nH]ccc5c4)c3)CC2)=C(c2ccc(Cl)cc2)C1 [Venetoclax] + COc1cc(Nc2ncc3c(n2)-c2ccc(Cl)cc2C(c2c(F)cccc2OC)=NC3)ccc1C(=O)O [Alisertib] (first compound max 1 µM, 7x7, partner max 10 µM) | -0.0523 | -0.0101 | 0.111 | 0.0652 | -0.0137 | 0.0092 | 0.0444 | 0.079 | 0.0517 | -0.0527 | 0.0661 | -0.0193 | -0.0033 | -0.0271 | 0.0421 | 0.08 | 0.0489 | 0.028 | -0.0217 | -0.0026
4 | COc1nnc2ccc(N3CCC(c4ccc(OCCN5CCN(C)C(=O)[C@H]5C)cc4)CC3)nn12 [AZD5153] + Cn1cnc2c(F)c(Nc3ccc(Br)cc3Cl)c(C(=O)NOCCO)cc21 [Selumetinib] (first compound max 1 µM, 7x7, partner max 10 µM) | -0.0304 | 0.0571 | -0.0036 | 0.0031 | -0.051 | 0.0176 | 0.0686 | -0.0625 | -0.0577 | 0.0075 | 0.012 | -0.0011 | -0.0101 | 0.0979 | -0.0364 | 0.0309 | -0.0347 | -0.0177 | -0.0522 | -0.0463
5 | CC1(C)CCC(CN2CCN(c3ccc(C(=O)NS(=O)(=O)c4ccc(NCC5CCOCC5)c([N+](=O)[O-])c4)c(Oc4cnc5[nH]ccc5c4)c3)CC2)=C(c2ccc(Cl)cc2)C1 [Venetoclax] + Cn1cnc2c(F)c(Nc3ccc(Br)cc3Cl)c(C(=O)NOCCO)cc21 [Selumetinib] (first compound max 1 µM, 7x7, partner max 3 µM) | -0.0678 | -0.0104 | -0.0137 | -0.0092 | -0.0415 | -0.0381 | -0.0038 | -0.0413 | -0.0378 | -0.0403 | 0.0678 | -0.0252 | -0.0324 | -0.0542 | -0.104 | -0.0021 | -0.0508 | -0.06 | -0.0679 | -0.0291
6 | CS(=O)(=O)CCNCc1ccc(-c2ccc3ncnc(Nc4ccc(OCc5cccc(F)c5)c(Cl)c4)c3c2)o1 [Lapatinib] + NC1(c2ccc(-c3nc4ccn5c(=O)[nH]nc5c4cc3-c3ccccc3)cc2)CCC1 [MK-2206] (first compound max 10 µM, 7x7, partner max 10 µM) | 0.0286 |  | 0.142 | -0.0286 | -0.0369 | -0.0597 | -0.0144 | 0.0455 |  |  | -0.0073 | 0.0221 |  |  |  |  | -0.0313 |  |  | 
7 | Cc1c2c(nn1C)CSCc1cc(n(C)n1)CSc1cc(c3ccccc3c1)OCCCc1c(C(=O)O)n(C)c3c-2c(Cl)ccc13 [AZD5991] + CCN(CCO)CCCOc1ccc2c(Nc3cc(CC(=O)Nc4cccc(F)c4)[nH]n3)ncnc2c1 [AZD2811] (first compound max 1 µM, 7x7, partner max 1 µM) | 0.0535 |  | -0.0116 | -0.0393 | -0.0026 | 0.027 | 0.0276 | 0.05 | 0.032 | -0.019 | -0.0464 | 0.0679 | 0.0438 | 0.0019 | -0.0209 | 0.108 | -0.0031 | 0.0704 | -0.0245 | 0.0225
8 | CN(C)CCCOc1ccc(-c2ccc3ncc4c(c3c2)n(C2CCOCC2)c(=O)n4C)cn1 [AZD0156] + O=C(c1cc(Cc2n[nH]c(=O)c3ccccc23)ccc1F)N1CCN(C(=O)C2CC2)CC1 [Olaparib] (first compound max 3 µM, partner max 3 µM) | -0.0084 | 0.0152 | -0.0091 | 0.0954 | -0.0347 | 0.029 | 0.102 | 0.13 |  | -0.0247 | 0.25 | 0.115 | 0.147 | 0.0413 | 0.172 | 0.0209 | -0.0199 | 0.0614 | 0.0036 | -0.0153
9 | C=CCn1c(=O)c2cnc(Nc3ccc(N4CCN(C)CC4)cc3)nc2n1-c1cccc(C(C)(C)O)n1 [AZD1775] + C1CN(CCC1(C(=O)N[C@@H](CCO)C2=CC=C(C=C2)Cl)N)C3=NC=NC4=C3C=CN4 [Capivasertib] (first compound max 3 µM, partner max 3 µM) | -0.101 | -0.0306 | -0.0436 | -0.0268 | -0.0372 | -0.0422 | 0.144 | -0.0571 |  | -0.0608 | -0.0233 | -0.0648 | 0.0514 | -0.0602 | 0.0244 | -0.0742 | -0.0694 | 0.0215 | -0.0109 | -0.0301
10 | Cc1c2c(nn1C)CSCc1cc(n(C)n1)CSc1cc(c3ccccc3c1)OCCCc1c(C(=O)O)n(C)c3c-2c(Cl)ccc13 [AZD5991] + C1CN(CCC1(C(=O)N[C@@H](CCO)C2=CC=C(C=C2)Cl)N)C3=NC=NC4=C3C=CN4 [Capivasertib] (first compound max 1 µM, 7x7, partner max 3 µM) | -0.0651 | -0.0036 | 0.0321 | 0.0384 | -0.0056 | -0.0227 | -0.0203 | 0.0032 | 0.0256 | -0.0186 | 0.0364 | -0.0133 | 0.0302 | 0.0259 |  | 0.131 | -0.0032 | -0.0281 | 0.0118 | 0.0122
11 | Cc1cc2ncnn2cc1Nc1ncc2c(n1)n(C1CCOCC1)c(=O)n2C [AZD7648] + C=CCn1c(=O)c2cnc(Nc3ccc(N4CCN(C)CC4)cc3)nc2n1-c1cccc(C(C)(C)O)n1 [AZD1775] (first compound max 10 µM, partner max 1 µM) | -0.0043 | 0.0011 | 0.0389 |  | 0.0054 | -0.028 | -0.0029 | -0.0894 | 0.0225 | -0.0189 | -0.001 | -0.011 | 0.0058 | -0.0041 | -0.0322 | -0.0186 | -0.0244 | -0.0652 | -0.0421 | 0.012
12 | C[C@@H](c1ccc2nccn2c1)n1nnc2ncc(-c3cnn(C)c3)nc21 [Savolitinib] + CN(CC[C@H](CSC1=CC=CC=C1)NC2=C(C=C(C=C2)S(=O)(=O)NC(=O)C3=CC=C(C=C3)N4CCC(CC4)[C@H](C5=CC=CC=C5C6=CC=C(C=C6)Cl)O)S(=O)(=O)C(F)(F)F)CCO [AZD4320] (first compound max 1 µM, 7x7, partner max 1 µM) | -0.0472 | -0.011 |  | 0.0076 | -0.0473 |  | -0.0665 |  | -0.0577 | -0.0586 |  |  | -0.0794 | -0.0067 | -0.0221 | -0.0084 |  | -0.0338 | 0.0166 | -0.0642
13 | CCN(CCO)CCCOc1ccc2c(Nc3cc(CC(=O)Nc4cccc(F)c4)[nH]n3)ncnc2c1 [AZD2811] + C[C@@H]1COCCN1C2=NC(=NC(=C2)C3(CC3)[S@](=N)(=O)C)C4=C5C=CNC5=NC=C4 [AZD6738] (first compound max 1 µM, 7x7, partner max 10 µM) | -0.0542 | -0.051 | -0.107 |  | -0.0145 | -0.0723 | -0.089 | -0.0152 | -0.0257 | -0.067 | -0.0882 | 0.0084 | -0.0939 | -0.0182 | -0.0831 | -0.0356 | -0.0188 | -0.0611 | 0.027 | -0.0583
14 | CC(=O)c1c(C)c2cnc(Nc3ccc(N4CCNCC4)cn3)nc2n(C2CCCC2)c1=O [Palbociclib] + CN(CC[C@H](CSC1=CC=CC=C1)NC2=C(C=C(C=C2)S(=O)(=O)NC(=O)C3=CC=C(C=C3)N4CCC(CC4)[C@H](C5=CC=CC=C5C6=CC=C(C=C6)Cl)O)S(=O)(=O)C(F)(F)F)CCO [AZD4320] (first compound max 10 µM, 7x7, partner max 1 µM) | -0.0207 | -0.0228 |  | 0.016 | -0.0718 |  | -0.0062 |  | -0.121 | -0.074 |  |  | -0.193 | -0.0226 | -0.0118 | -0.01 |  | -0.0373 | 0.0226 | -0.0157
15 | COc1nnc2ccc(N3CCC(c4ccc(OCCN5CCN(C)C(=O)[C@H]5C)cc4)CC3)nn12 [AZD5153] + CN(CC[C@H](CSC1=CC=CC=C1)NC2=C(C=C(C=C2)S(=O)(=O)NC(=O)C3=CC=C(C=C3)N4CCC(CC4)[C@H](C5=CC=CC=C5C6=CC=C(C=C6)Cl)O)S(=O)(=O)C(F)(F)F)CCO [AZD4320] (first compound max 1 µM, 7x7, partner max 1 µM) | 0.0504 | 0.0999 |  | 0.0145 | -0.0177 |  | 0.0343 |  | -0.0243 | 0.0559 |  |  | 0.0491 | 0.0628 | 0.0033 | -0.0001 |  | -0.0557 | 0.065 | -0.0215
